Data set [1] has as its target T1, HSA (Homo sapiens, UniProt P02768). Details: purchased Sigma Aldrich (St. Louis, Mo.). To be noted: cited from earlier work; for Kd: binding to HSA, read-out: Average Literature KD; for reported HSA binding activity: literature report.
The target in data set [2] is T1, HSA. Briefly: Drug screening: HSA binding constants from DSC thermograms. Conditions: for Measured HSA binding (cell spanning the measured KD columns; same in text): result in words.
Procedure: Ligand solubilization: Stock solutions of aqueous insoluble ligands in organic solvents were pipetted into microcentrifuge tubes to yield a desired amount of drug for a 1 mL solution. The microcentrifuge tubes were placed into a vacuum concentrator (Savant SpeedVac Model SC100), and the organic solvents were evaporated, resulting in solid drug in the tube. To each tube, HSA is added at a predetermined concentration with standard buffer to provide a 1 mL working solution.
In total binding of 28 drug compounds to HSA was examined by obtaining thermograms.
The target in data set [3] is T2, human serum albumin (HSA) (Homo sapiens, UniProt P02768).
T2 construct: purchased Sigma Aldrich (St. Louis, Mo.)
T2 sequence (P02768 25-609): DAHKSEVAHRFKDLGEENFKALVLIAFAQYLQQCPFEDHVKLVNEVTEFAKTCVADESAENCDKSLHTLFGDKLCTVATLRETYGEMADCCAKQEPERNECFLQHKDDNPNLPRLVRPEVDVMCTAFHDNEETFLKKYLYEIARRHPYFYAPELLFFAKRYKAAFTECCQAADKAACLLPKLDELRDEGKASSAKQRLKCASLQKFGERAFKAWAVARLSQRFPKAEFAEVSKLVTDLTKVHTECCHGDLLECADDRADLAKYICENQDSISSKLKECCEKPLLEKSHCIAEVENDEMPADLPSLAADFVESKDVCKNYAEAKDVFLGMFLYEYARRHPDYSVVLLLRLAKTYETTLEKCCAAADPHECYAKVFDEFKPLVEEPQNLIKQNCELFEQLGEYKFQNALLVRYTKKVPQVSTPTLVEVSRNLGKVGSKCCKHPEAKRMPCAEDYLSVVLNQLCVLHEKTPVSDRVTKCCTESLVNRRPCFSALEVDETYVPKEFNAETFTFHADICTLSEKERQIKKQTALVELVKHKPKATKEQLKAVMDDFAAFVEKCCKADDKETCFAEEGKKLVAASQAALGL
Briefly: DSC thermograms of HSA with ligand (single-ligand titration). It counts as binding. The method, then: Chemicals and reagents: Plasma and highly pure plasma proteins are sourced from commercial suppliers. Standard reagents are sourced from commercial suppliers. Samples are prepared in standard phosphate-buffered saline (PBS) buffer. In some examples, human plasma and serum albumin were purchased from Sigma Aldrich (St. Louis, Mo.) and received as lyophilized powder. Plasma was product number: P9523, lot number: SLBT0202. […] In vivo, the standard state of HSA is most certainly bound to some extent by fatty acids. Plasma and HSA stock solutions were prepared by re-suspending the appropriate amount of powder in buffer. Samples were prepared by diluting stock solutions to a final concentration of 1.5-2.0 mg/mL.
Protein concentration was approximately 2 mg/ml.
In a DSC melting experiment, the supplemental power supplied to the sample cell (in μW) necessary to keep the sample temperature equal to the reference temperature is continually monitored. […] Supplemental power is directly related to the molar heat capacity at constant pressure, ΔCp. Curves of ΔCp versus T provide an evaluation of the thermodynamic enthalpy. To enable direct comparisons in some cases, power (μW) versus T plots (instead of ΔCp versus T curves) were used for the following reason.
Analysis of DSC data was performed using the Nanoanalyze software package, version 3.7.5, provided by T.A. Instruments. […]
From the thermograms, semi-quantitative evaluations of the thermodynamic parameters ΔHcal, ΔScal and ΔGcal(37° C.) were obtained at each ligand concentration.
These curves were constructed from titrations of DM1 with HSA. The Tm and ΔGcal(37° C.) were evaluated. The values were normalized against standard HSA and plotted versus ligand concentration to provide the dose curves in FIG. 20A (Tm) and FIG. 20B (ΔGcal(37° C.)).
Natural HSA samples were prepared at pH 6.0 and pH 8.0 and examined by DSC. […] From DSC melting curves thermodynamic parameters for HSA/ligand mixtures were evaluated.
For orientation: DSC measures the heat that a sample takes up or gives off during a temperature scan.

The next data set concerns human plasma. Briefly: DSC thermograms of plasma with ligand. Format: binding.
The mark [4] stands for this setting: read-out: Average Measured KD; binding to HSA; single value or value marked 1).
The mark [5] stands for this setting: read-out: Measured KD From TM; binding to HSA; single value or value marked 1).
The mark [6] stands for this setting: read-out: Measured KD from ΔG^037; binding to HSA; single value or value marked 1).
[7] abbreviates: Average Measured KD, binding to HSA; single value or value marked 1).
[8] abbreviates: Measured KD From TM, binding to HSA; single value or value marked 1).
[9] abbreviates: Measured KD from ΔG^037, binding to HSA; single value or value marked 1).

Where two headings read alike, the source gives them in different places.

T1 sequence (P02768 25-609): as above

For orientation: Kd means the equilibrium constant for the complex coming apart. `O=C([O-])CN(CCN(CC(=O)[O-])CC(COP(=O)(O)OC1CCC(c2ccccc2)(c2ccccc2)CC1)N(CC(=O)[O-])CC(=O)[O-])CC(=O)O.[Gd+3].[Na+]` (stereo not drawn) [Ablavar (AB)]: at HSA [1], the Kd was 60.4 µM.
As to `O=C([O-])CN1CCN(CC(=O)[O-])CCN(CC(=O)O)CCN(CC(=O)[O-])CC1.[Gd+3]` [Dotarem (DOTA), gadoteric acid], the “Measured HSA binding (cell spanning the measured KD columns; same in text)” value on HSA [2] is on record as “No Binding Detected”; on HSA [2] (listed as Dotarem) it was “no binding was observed”. On HSA [1], the “reported HSA binding activity” value is recorded as “not have any measurable HSA binding activity”.
`CCCCCc1cc(O)c2c(c1)OC(C)(C)[C@@H]1CCC(C)=C[C@@H]21` [Δ9-tetrahydrocannabinol (THC), Δ9-tetrahydrocannabinol]: the Kd was 0.035 µM at HSA [2] (setting [4]), 0.025 µM on HSA [2] (setting [5]), 0.048 µM at HSA [2] (setting [6]) and ≤ 0.1 µM on HSA [1].
`C[C@H](CS)C(=O)N1CCC[C@H]1C(=O)O` [Captopril (CAP), Captopril]: the Kd is 3.75 µM at HSA [2] (setting [7]), 5.44 µM at HSA [2] (setting [8]), 2.05 µM at HSA [2] (setting [9]) and 192 µM at HSA [1].
Take `CCN(CC)CCCC(C)Nc1ccnc2cc(Cl)ccc12` (stereo not drawn) [CQ, Chloroquine]: the “Implied number of sites” value in data set [3] is listed as 1. For the same molecule, the “effect on fibrinogen melting transition peak (52° C.) of the plasma thermogram” value in the data set with human plasma is “significant perturbation”.
As to `CC(O)CN1CCN(CC(=O)[O-])CCN(CC(=O)[O-])CCN(CC(=O)[O-])CC1.[Gd+3]` (stereo not drawn) [Prohance (PRO), gadoteridol], on HSA [1], the “reported HSA binding activity” value is “not display HSA binding activity”.
For the molecule `O=C1OC2(c3ccc(O)cc3Oc3cc(O)ccc32)c2ccccc21` [Fluorescein (FSC), Fluorescein], the Kd at HSA [2] (setting [7]) was 68 µM; at HSA [2] (setting [8]), 79.8 µM; at HSA [2] (setting [9]) it was 56.2 µM; on HSA [1], 212 µM.
`C[CH2][Hg][S]c1ccccc1C(=O)[O-].[Na+]` [Thimerosal (TMS), Thimerosal]: the Kd on HSA [1] was 339 µM.
Consider `C=CC1=C(C)/C(=C/c2[nH]c(Cc3[nH]c(/C=C4\NC(=O)C(C)=C4C=C)c(C)c3CCC(=O)O)c(CCC(=O)O)c2C)NC1=O` [Bilirubin (BIL), Bilirubin], for which the Kd at HSA [2] (setting [7]) was 0.33 µM; on HSA [2] (setting [8]), 0.41 µM; on HSA [2] (setting [9]), 0.25 µM; on HSA [1], 0.074 µM.
For `CNC[C@H](O)[C@@H](O)[C@H](O)[C@H](O)CO.CNC[C@H](O)[C@@H](O)[C@H](O)[C@H](O)CO.O=C([O-])CN(CCN(CC(=O)[O-])CC(=O)O)CCN(CC(=O)O)C(COCc1ccccc1)C(=O)[O-].[Gd+3]` (stereo not drawn) [Multihance (MH)], the Kd on HSA [2] (setting [4]) is 1340 µM; on HSA [2] (setting [5]), 1380 µM; at HSA [2] (setting [6]) it was 1290 µM; on HSA [1], 1950 µM.
With `COCCc1ccc(OCC(O)CNC(C)C)cc1` (stereo not drawn) [Metoprolol (MEP), Metoprolol], the Kd at HSA [2] (setting [7]) is 11.1 µM; at HSA [2] (setting [8]), 3.04 µM; on HSA [2] (setting [9]) it was 19.2 µM; on HSA [1], 74.1 µM.
Take `CC(NC(C)(C)C)C(=O)c1cccc(Cl)c1` (stereo not drawn) [Bupropion (BPR), Bupropion]: the Kd on HSA [2] (Average Measured KD, binding to HSA; second value marked 2)) worked out at 19.5 µM; at HSA [2] (setting [7]) it was 0.25 µM; at HSA [2] (Measured KD From TM, binding to HSA; second value marked 2)), 28.8 µM; on HSA [2] (setting [8]), 0.28 µM; at HSA [2] (Measured KD from ΔG^037, binding to HSA; second value marked 2)) it was 10.2 µM; at HSA [2] (setting [9]), 0.21 µM. In addition, the Kd at HSA [1] is 172 µM.

Values taken from patent US20220091128A1, “SYSTEM AND METHOD FOR LIGAND THERMAL ANALYSIS” (Portland State University, priority 2019, published 2022).
